From US20210268017A1, “MOLECULAR HYDROGEN-CONTAINING COMPOSITION FOR PREVENTION AND/OR IMPROVEMENT OF PNEUMONIA” (MiZ Company Limited, priority 2020, published 2021)

Key:
[1] = room temperature, normal pressure; also printed as 1.6 mg/L; cited from earlier work
interstitial pneumonia = settings: patient; drip infusion 1 ppm hydrogen 250 ml plus hydrogen gas inhalation (6 to 7%, 120 ml/min) 30 to 60 minutes once weekly for 8 weeks
Procedure: A patient who was diagnosed as having interstitial pneumonia received a drip infusion of hydrogen (1 ppm hydrogen, 250 ml) and inhalation of hydrogen gas over 30 minutes to 60 minutes once weekly for 8 weeks. MHG-2000α manufactured by MiZ Company Limited (hydrogen gas concentration 6 to 7%, 120 ml/min) was used for inhalation of a hydrogen gas.

[2] = system: chronic bronchitis and obstructive lung bronchitis; settings: mice; earlier study; cited from earlier work

[HH] [hydrogen, molecular hydrogen]
concentration of hydrogen dissolved in water [1]: approximately 1.6 ppm
improvement of interstitial pneumonia, confirmed by disappearance of ground-glass opacity in the CT finding (interstitial pneumonia): Significant improvement
effect on chronic bronchitis and obstructive lung bronchitis [2]: improved chronic bronchitis and obstructive lung bronchitis
